The target in this test is T1, KCNQ2 potassium channels (CHO-KCNQ2 cells) (Homo sapiens, UniProt O43526).
T1 construct: expressed in transfected cells; host or cells: CHO cells stably expressing KCNQ2 (G418 selection in the culture medium)
As to the kind of experiment: Potassium ion channel opener activity test (FDSS/μCELL detection, FluxOR thallium flux). In kind it is cell-based. As to conditions: 8 concentrations 0.045-100 μM; for EC50: 3 replicate wells; for Emax: ratio at 180 s, read-out: Maximum agonistic rate (%). The procedure: Example A1 Potassium Ion Channel Opener Activity Test (FDSS/μ CELL Detection)
Cell preparation: CHO-KCNQ2 cells were cultured in a 175 cm^2 culture flask, and when the cell density grew to 60˜80%, the culture medium was removed and the cells were washed once with 7 mL PBS (Phosphate Buffered Saline), and then 3 mL of 0.25% Trypsin was added for digestion. After completion of digestion, 7 mL of culture medium (90% DMEM/F12+10% FBS+500 μg/mL G418) was added to neutralize, and centrifuged at 800 rpm for 3 min; the supernatant was aspirated, then 5 mL of culture medium was added to resuspend the cells, and the cells were counted.
Cell spreading: according to the cell counting results, the density was adjusted to 3×10^4 cells/well. After standing at room temperature for 30 minutes, the cells were placed in a CO2 incubator at 37° C. overnight, and incubated for 16-18 hours to reach a cell density of about 80%.
Fluorescent dye incubation: Cell culture solution was discarded, 80 μL/well of loading buffer was added and the cells were incubated for 60 minutes at room temperature and protected from light.
Compound incubation: Loading buffer was discarded, 80 μL/well of prepared compound solution was added, and the cells were incubated for 20 min at room temperature and protected from light.
Fluorescence data acquisition: Real-time fluorescence signal recording was performed using an FDSS/μCELL instrument with an excitation wavelength of 480 nm and an emission wavelength of 540 nm, and the signal was recorded once per second. 10 seconds of the baseline was recorded, then 20 μL/well of stimulation buffer was added, and the recording was continued until the end of 180 seconds.
20 mM stock solution of compound in DMSO was prepared, 10 μL of 20 mM compound stock solution was taken into 20 μL of DMSO solution, and a 3-fold serial dilution was performed to form 8 intermediate concentrations; then the intermediate concentrations of the compounds were taken respectively into test buffer, and a 200-fold dilution was performed to obtain the final concentration to be tested, and 80 μL was taken and added to the assay plate.
The highest test concentration was 100 μM, and there was a total of 8 concentrations, i.e., 100, 33.33, 11.11, 3.70, 1.23, 0.41, 0.137, 0.045 μM, respectively, with 3 replicate wells for each concentration.
The experimental data were analyzed by Excel 2007, GraphPad Prism 5.0 software, and the ratio of 180 s was counted to calculate the agonistic effect. The agonistic effect of the compound was calculated by the following equation:
• Environment: Temperature ˜25° C. • Reagent: FluxOR™ detection kit (Invitrogen, Cat #F0017) • The experimental data in the report must meet the following criteria: Z′ Factor>0.5 2. Results: See Table 1 for details, wherein a smaller EC50 indicates a higher activity of the corresponding compound.

T1 sequence (O43526 whole entry): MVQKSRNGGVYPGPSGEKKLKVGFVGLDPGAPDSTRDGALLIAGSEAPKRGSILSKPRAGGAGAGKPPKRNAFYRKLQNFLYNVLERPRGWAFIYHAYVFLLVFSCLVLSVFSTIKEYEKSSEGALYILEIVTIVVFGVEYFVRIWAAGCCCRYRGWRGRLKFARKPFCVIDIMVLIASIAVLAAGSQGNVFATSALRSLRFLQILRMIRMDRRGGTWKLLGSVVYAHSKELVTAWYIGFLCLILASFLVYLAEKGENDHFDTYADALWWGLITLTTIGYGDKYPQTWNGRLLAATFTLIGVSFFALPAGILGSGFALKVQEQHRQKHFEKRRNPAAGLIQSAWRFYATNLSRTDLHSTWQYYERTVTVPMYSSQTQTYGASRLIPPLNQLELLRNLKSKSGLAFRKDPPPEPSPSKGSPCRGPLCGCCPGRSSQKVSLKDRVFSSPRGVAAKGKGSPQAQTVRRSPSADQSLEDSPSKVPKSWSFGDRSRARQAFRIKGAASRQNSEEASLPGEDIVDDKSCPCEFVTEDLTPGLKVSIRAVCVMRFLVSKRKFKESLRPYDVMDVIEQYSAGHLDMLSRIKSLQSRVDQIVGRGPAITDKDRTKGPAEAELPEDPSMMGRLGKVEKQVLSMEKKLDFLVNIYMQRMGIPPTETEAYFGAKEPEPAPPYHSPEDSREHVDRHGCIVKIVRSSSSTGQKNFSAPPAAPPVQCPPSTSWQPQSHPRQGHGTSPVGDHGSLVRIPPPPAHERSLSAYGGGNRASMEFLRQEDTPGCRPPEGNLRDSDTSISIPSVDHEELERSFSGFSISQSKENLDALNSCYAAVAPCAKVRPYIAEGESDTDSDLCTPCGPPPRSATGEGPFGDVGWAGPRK

Consider `Cc1cc(N2CCc3cc(C(F)(F)F)ccc3C2)cc(C)c1NC(=O)CC1(C)CC1` [Compound 3001], for which the response was half-maximal at 86 nM (EC50) and the Emax amounted to 45.6%.
For `Cc1cc(N2CCCCc3cc(C(F)(F)F)ccc32)cc(C)c1NC(=O)CC1(C)CC1` [Compound 3002] the same measures were 580 nM and 28.1%.
For `Cc1cc(N2CCOc3cc(C(F)(F)F)ccc3C2)cc(C)c1NC(=O)CC1(C)CC1` [Compound 3003], the concentration giving a half-maximal response (EC50) (usually the concentration giving half of the maximal effect) is 18 nM and the Emax came to 39.6%.
Turning to `Cc1cc(N2CCCOc3cc(C(F)(F)F)ccc32)cc(C)c1NC(=O)CC1(C)CC1` [Compound 3004], the EC50 came to 580 nM and the Emax turned out to be 17.7%.
As to `Cc1cc(N2CCc3sc(F)cc3C2)cc(C)c1NC(=O)CC1(C)CC1` [Compound 3005], the EC50 is 110 nM and the Emax was found to be 46.7%.
For the compound `Cc1cc(N2CCn3cccc3C2)cc(C)c1NC(=O)CC1(C)CC1` [Compound 3006], the EC50 stood at 270 nM and the Emax stood at 34.9%.
For `Cc1ccc2c(c1)CCCCN2c1cc(C)c(NC(=O)CC2(C)CC2)c(C)c1` [Compound 3007] the same measures were 30 nM and 41.5%.
With `Cc1cc(N2CCOc3cc(F)ccc3C2)cc(C)c1NC(=O)CC1(C)CC1` [Compound 3008], the EC50 came to 17 nM and the Emax turned out to be 40.9%.
As to `Cc1ccc2c(c1)OCCCN2c1cc(C)c(NC(=O)CC2(C)CC2)c(C)c1` [Compound 3009], the EC50 came to 71 nM and the Emax turned out to be 36.1%.
In the case of `Cc1cc(N2CCCn3cccc3C2)cc(C)c1NC(=O)CC1(C)CC1` [Compound 3010], the response was half-maximal at 3700 nM (EC50) and the Emax amounted to 35.3%.
`Cc1cc(N2CCSc3ccccc3C2)cc(C)c1NC(=O)CC1(C)CC1` [Compound 3011]: the EC50 is 4.3 nM and the Emax was 49.4%.

The values are drawn from US20250144115A1, “AMIDE COMPOUND AS POTASSIUM CHANNEL REGULATOR, AND PREPARATION THEREFOR AND USE THEREOF” (Shanghai Zhimeng Biopharma, Inc., priority 2022, published 2025).
